Laboratory results published in patent US10251394B2, “Molecules having pesticidal utility, and intermediates, compositions, and processes, related thereto” (Dow AgroSciences LLC, priority 2016, dated 2019).

Experiments:
[1] = test system: Beet Armyworm (Spodoptera exigua); assay: Bioassay on Beet Armyworm (BAW), 128-well diet tray assay; assay type: in vivo; conditions: Beet Armyworm, Table ABC, read-out: BAW rating
Summary of the method: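 Second-instar larvae (one to five per well) placed on artificial diet surface-treated with 50 μg/cm^2 test molecule in 90:10 acetone-water, dried, eight wells per molecule. Held at 25° C, 14:10 light-dark, five to seven days; percent mortality recorded per well and averaged across the eight wells.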

[2] = test system: Cabbage Looper (Trichoplusia ni); assay: Bioassay on Cabbage Looper (CL), 128-well diet tray assay; assay type: in vivo; conditions: Cabbage Looper, Table ABC, read-out: CL rating
Summary of the method: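 Second-instar larvae, one to five per well, placed on artificial diet surface-treated with 50 μg/cm^2 compound in acetone-water, eight wells per compound. Held 5-7 days at 25° C, 14:10 light-dark; percent mortality per well averaged across wells.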

Row | SMILES | pest or weed control at 50 µg/cm2 [1] [%] | pest or weed control at 50 µg/cm2 [2] [%]
1 | O=C(NC1(C(=O)NCC2CCC2)CC1)c1ccc(/C(F)=C/C(c2cc(Cl)c(Cl)c(Cl)c2)C(F)(F)F)cc1C(F)(F)F (stereo not drawn) [F93, (Z)—N-(1-((Cyclobutylmethyl)carbamoyl)cyclopropyl)-4-(1,4,4,4-tetrafluoro-3-(3,4,5-trichlorophenyl)but-1-en-1-yl)-2-(trifluoromethyl)benzamide] | 50 to 100 | 50 to 100
2 | C#CCNC(=O)C1(NC(=O)c2ccc(/C(F)=C/C(c3cc(Cl)c(Cl)c(Cl)c3)C(F)(F)F)cc2C(F)(F)F)CC1 (stereo not drawn) [F94, (Z)—N-(1-(Prop-2-yn-1-ylcarbamoyl)cyclopropyl)-4-(1,4,4,4-tetrafluoro-3-(3,4,5-trichlorophenyl)but-1-en-1-yl)-2-(trifluoromethyl)benzamide] | 50 to 100 | 50 to 100
3 | O=C(NC1(C(=O)NCC(F)F)CC1)c1ccc(/C(F)=C/C(c2cc(Cl)c(Cl)c(Cl)c2)C(F)(F)F)cc1C(F)(F)F (stereo not drawn) [F95, (Z)—N-(1-((2,2-Difluoroethyl)carbamoyl)cyclopropyl)-4-(1,4,4,4-tetrafluoro-3-(3,4,5-trichlorophenyl)but-1-en-1-yl)-2-(trifluoromethyl)benzamide] | 50 to 100 | 50 to 100
4 | CN(CC(F)(F)F)C(=O)C1(NC(=O)c2ccc(/C(F)=C/C(c3cc(Cl)c(Cl)c(Cl)c3)C(F)(F)F)cc2C(F)(F)F)CC1 (stereo not drawn) [F96, (Z)—N-(1-(Methyl(2,2,2-trifluoroethyl)carbamoyl)cyclopropyl)-4-(1,4,4,4-tetrafluoro-3-(3,4,5-trichlorophenyl)but-1-en-1-yl)-2-(trifluoromethyl)benzamide] | 50 to 100 | 50 to 100
5 | CN(CC(F)(F)F)C(=O)C1(NC(=O)c2ccc(/C(F)=C/C(c3cc(Cl)c(Cl)c(Cl)c3)C(F)(F)F)cc2Cl)CC1 (stereo not drawn) [F97, (Z)-2-Chloro-N-(1-(methyl(2,2,2-trifluoroethyl)carbamoyl)cyclopropyl)-4-(1,4,4,4-tetrafluoro-3-(3,4,5-trichlorophenyl)but-1-en-1-yl)benzamide] | 50 to 100 | 50 to 100
6 | CC[C@@H](NC(=O)c1ccc(/C(F)=C/C(c2cc(Cl)c(Cl)c(Cl)c2)C(F)(F)F)cc1C(F)(F)F)C(=O)NCC(F)(F)F (stereo partly drawn) [F98, N—((R)-1-Oxo-1-((2,2,2-trifluoroethyl)amino)butan-2-yl)-4-((Z)-1,4,4,4-tetrafluoro-3-(3,4,5-trichlorophenyl)but-1-en-1-yl)-2-(trifluoromethyl)benzamide] | 50 to 100 | 50 to 100
7 | CC[C@@H](NC(=O)c1ccc(/C(F)=C/C(c2cc(Cl)c(Cl)c(Cl)c2)C(F)(F)F)cc1Cl)C(=O)NCC(F)(F)F (stereo partly drawn) [F100, 2-Chloro-N—((R)-1-oxo-1-((2,2,2-trifluoroethyl)amino)butan-2-yl)-4-((Z)-1,4,4,4-tetrafluoro-3-(3,4,5-trichlorophenyl)but-1-en-1-yl)benzamide] | 50 to 100 | 50 to 100
8 | O=C(NC1(C(=O)NC2CC(F)(F)C2)CC1)c1ccc(/C(F)=C/C(c2cc(Cl)c(Cl)c(Cl)c2)C(F)(F)F)cc1C(F)(F)F (stereo not drawn) [F101, (Z)—N-(1-((3,3-Difluorocyclobutyl)carbamoyl)cyclopropyl)-4-(1,4,4,4-tetrafluoro-3-(3,4,5-trichlorophenyl)but-1-en-1-yl)-2-(trifluoromethyl)benzamide] | 50 to 100 | 50 to 100
9 | O=C(NC1CCCN(CC(F)(F)F)C1=O)c1ccc(/C(F)=C/C(c2cc(Cl)c(Cl)c(Cl)c2)C(F)(F)F)cc1C(F)(F)F (stereo not drawn) [F104, (Z)—N-(2-Oxo-1-(2,2,2-trifluoroethyl)piperidin-3-yl)-4-(1,4,4,4-tetrafluoro-3-(3,4,5-trichlorophenyl)but-1-en-1-yl)-2-(trifluoromethyl)benzamide] | 50 to 100 | 50 to 100
10 | C[C@@H](NC(=O)c1ccc(/C(F)=C/C(c2cc(Cl)cc(Cl)c2)C(F)(F)F)cc1C(F)(F)F)C(=O)NCC(F)(F)F (stereo partly drawn) [F105, 4-((Z)-3-(3,5-Dichlorophenyl)-1,4,4,4-tetrafluorobut-1-en-1-yl)-N—((R)-1-oxo-1-((2,2,2-trifluoroethyl)amino)propan-2-yl)-2-(trifluoromethyl)benzamide] | 50 to 100 | 50 to 100
11 | O=C(N[C@@H]1CON(CC(F)(F)F)C1=O)c1ccc(/C(F)=C/C(c2cc(Cl)c(Cl)c(Cl)c2)C(F)(F)F)cc1C(F)(F)F (stereo partly drawn) [F106, N—((R)-3-Oxo-2-(2,2,2-trifluoroethyl)isoxazolidin-4-yl)-4-((Z)-1,4,4,4-tetrafluoro-3-(3,4,5-trichlorophenyl)but-1-en-1-yl)-2-(trifluoromethyl)benzamide] | 50 to 100 | 50 to 100
12 | O=C(CNC(=O)c1ccc(/C(F)=C/C(c2ccc(Br)c(Br)c2)C(F)(F)F)cc1C(F)(F)F)NCC(F)(F)F (stereo not drawn) [F107, (Z)-4-(3-(3,4-Dibromophenyl)-1,4,4,4-tetrafluorobut-1-en-1-yl)-N-(2-oxo-2-((2,2,2-trifluoroethyl)amino)ethyl)-2-(trifluoromethyl)benzamide] | 50 to 100 | 50 to 100
13 | CN(CC(F)(F)F)C(=O)C1(NC(=O)c2ccc(/C(F)=C/C(c3cc(Br)cc(Br)c3)C(F)(F)F)cc2C(F)(F)F)CC1 (stereo not drawn) [F108, (Z)-4-(3-(3,5-Dibromophenyl)-1,4,4,4-tetrafluorobut-1-en-1-yl)-N-(1-(methyl(2,2,2-trifluoroethyl)carbamoyl)cyclopropyl)-2-(trifluoromethyl)benzamide] | 50 to 100 | 50 to 100
14 | C[C@@H](NC(=O)c1ccc(/C(F)=C/C(c2cc(Cl)cc(Br)c2)C(F)(F)F)cc1C(F)(F)F)C(=O)NCC(F)(F)F (stereo partly drawn) [F109] | 50 to 100 | 50 to 100
15 | O=C(CNC(=O)c1ccc(/C(F)=C/C(c2cc(Cl)c(Br)c(Cl)c2)C(F)(F)F)cc1C(F)(F)F)NCC(F)(F)F (stereo not drawn) [F110] | 50 to 100 | 50 to 100
16 | C=Cc1c(Cl)cc(C(/C=C(\F)c2ccc(C(=O)NC3(C(=O)N(C)CC(F)(F)F)CC3)c(C(F)(F)F)c2)C(F)(F)F)cc1Cl (stereo not drawn) [F111, (Z)-4-(3-(3,5-Dichloro-4-vinylphenyl)-1,4,4,4-tetrafluorobut-1-en-1-yl)-N-(1-(methyl(2,2,2-trifluoroethyl)carbamoyl)cyclopropyl)-2-(trifluoromethyl)benzamide] | 50 to 100 | 50 to 100
17 | C[C@@H](NC(=O)c1ccc(/C(F)=C/C(c2ccc(Cl)c(Cl)c2)C(C)(F)F)cc1C(F)(F)F)C(=O)NCC(F)(F)F (stereo partly drawn) [F112, 4-((Z)-3-(3,4-Dichlorophenyl)-1,4,4-trifluoropent-1-en-1-yl)-N—((R)-1-oxo-1-((2,2,2-trifluoroethyl)amino)propan-2-yl)-2-(trifluoromethyl)benzamide] | 50 to 100 | 50 to 100
18 | CN(CC(F)(F)F)C(=O)C1(NC(=O)c2ccc(/C(F)=C/C(c3cc(Cl)c(Br)c(Cl)c3)C(F)(F)F)cc2C(F)(F)F)CC1 (stereo not drawn) [F117, (Z)-4-(3-(4-Bromo-3,5-dichlorophenyl)-1,4,4,4-tetrafluorobut-1-en-1-yl)-N-(1-(methyl(2,2,2-trifluoroethyl)carbamoyl)cyclopropyl)-2-(trifluoromethyl)benzamide] | 50 to 100 | 50 to 100
